This is an account of results in US10759813B2, “Neprilysin inhibitors” (THERAVANCE BIOPHARMA R&D IP, LLC, priority 2010, dated 2020).

Chain of human neprilysin (EC 3.4.24.11; NEP) (P08473 52-750): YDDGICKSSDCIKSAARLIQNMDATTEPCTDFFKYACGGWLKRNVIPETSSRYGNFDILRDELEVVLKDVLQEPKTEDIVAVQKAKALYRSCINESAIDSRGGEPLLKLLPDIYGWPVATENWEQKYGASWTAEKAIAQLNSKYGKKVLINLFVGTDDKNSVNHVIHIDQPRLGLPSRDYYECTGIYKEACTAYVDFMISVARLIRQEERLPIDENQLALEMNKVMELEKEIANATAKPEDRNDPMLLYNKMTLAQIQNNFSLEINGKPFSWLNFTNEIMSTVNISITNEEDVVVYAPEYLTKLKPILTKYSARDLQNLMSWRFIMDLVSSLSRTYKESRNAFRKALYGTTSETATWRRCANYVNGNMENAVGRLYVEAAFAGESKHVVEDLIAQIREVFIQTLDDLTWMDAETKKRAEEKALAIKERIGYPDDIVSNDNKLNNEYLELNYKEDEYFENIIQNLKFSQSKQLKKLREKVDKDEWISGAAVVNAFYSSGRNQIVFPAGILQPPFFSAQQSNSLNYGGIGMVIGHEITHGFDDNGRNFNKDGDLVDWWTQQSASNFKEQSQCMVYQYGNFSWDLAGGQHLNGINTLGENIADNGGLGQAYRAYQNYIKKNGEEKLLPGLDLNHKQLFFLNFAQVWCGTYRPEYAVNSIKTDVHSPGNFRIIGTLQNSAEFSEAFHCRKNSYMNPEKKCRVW

This experiment has as its target human neprilysin (EC 3.4.24.11; NEP) (Homo sapiens (Human), UniProt P08473). Put plainly: In vitro enzyme inhibition assay at human NEP (fluorogenic peptide substrate). The class given is biochemical. The following applies: pKi values at human NEP, recombinant human NEP. In short, it runs like this: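 Recombinant human NEP preincubated 30 min at 37 °C with compound (10 μM down to pM), then 10 μM Mca-D-Arg-Arg-Leu-Dap-(Dnp)-OH in 50 mM HEPES pH 7.5, 100 mM NaCl, 0.01% Tween-20, 10 μM ZnSO4. Stopped after 20 min with acetic acid; fluorescence Ex320/Em405; Ki by nonlinear fit, reported as pKi.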
As for `O=C(NC(Cc1ccc(-c2ccccc2)cc1)C[C@@H](O)C(=O)O)c1cc(-c2ccc(Cl)cc2)n[nH]1` (stereo partly drawn) [Example 15-83], the pKi was at least 9.0.
Same read-out and setting: to `O=C(N[C@H](Cc1ccc(-c2ccccc2)cc1)C[C@@H](O)C(=O)O)c1cc(-c2ccccc2Cl)n[nH]1` [Example 15-84, (2R,4R)-5-Biphenyl-4-yl-4-{[5-(2-chlorophenyl)-2H-pyrazole-3-carbonyl]amino}-2-hydroxy-pentanoic acid] belongs at least 9.0; to `COc1ccc(F)cc1-c1cc(C(=O)N[C@H](Cc2ccc(-c3ccccc3)cc2)C[C@@H](O)C(=O)O)[nH]n1` [Example 15-86, (2R,4R)-5-Biphenyl-4-yl-4-{[5-(5-fluoro-2-methoxy-phenyl)-2H-pyrazole-3-carbonyl]-amino}-2-hydroxy-pentanoic acid], at least 9.0.
On the same count and under the same terms, to `Cc1ccc(-c2cc(C(=O)N[C@H](Cc3ccc(-c4ccccc4)cc3)C[C@@H](O)C(=O)O)[nH]n2)s1` [Example 15-89, (2R,4R)-5-Biphenyl-4-yl-2-hydroxy-4-{[5-(5-methylthiophen-2-yl)-2H-pyrazole-3-carbonyl]-amino}-pentanoic acid] belongs at least 9.0; to `O=C(N[C@H](Cc1ccc(-c2ccccc2)cc1)C[C@@H](O)C(=O)O)c1cc(-c2ccc(Cl)s2)n[nH]1` [Example 15-90, (2R,4R)-5-Biphenyl-4-yl-4-{[5-(5-chlorothiophen-2-yl)-2H-pyrazole-3-carbonyl]-amino}-2-hydroxy-pentanoic acid], at least 9.0.
With `CCC(=O)Nc1cc(C(=O)N[C@H](Cc2ccc(-c3ccccc3)cc2)CC(O)C(=O)O)[nH]n1` (stereo partly drawn) [Example 15-91, (R)-5-Biphenyl-4-yl-2-hydroxy-4-[(5-propionylamino-2H-pyrazole-3-carbonyl)-amino]-pentanoic acid], the Ki is 12.6 to 100 nM.
On the same count and under the same terms, to `CCCCC(=O)Nc1cc(C(=O)N[C@H](Cc2ccc(-c3ccccc3)cc2)CC(O)C(=O)O)[nH]n1` (stereo partly drawn) [Example 15-92, (R)-5-Biphenyl-4-yl-2-hydroxy-4-[(5-pentanoylamino-2H-pyrazole-3-carbonyl)-amino]-pentanoic acid] belongs 12.6 to 100 nM; to `CCOC(=O)Nc1cc(C(=O)N[C@H](Cc2ccc(-c3ccccc3)cc2)CC(O)C(=O)O)[nH]n1` (stereo partly drawn) [Example 15-93, (R)-5-Biphenyl-4-yl-4-[(5-ethoxycarbonylamino-2H-pyrazole-3-carbonyl)-amino]-2-hydroxy-pentanoic acid], 12.6 to 100 nM; to `COCC(=O)Nc1cc(C(=O)N[C@H](Cc2ccc(-c3ccccc3)cc2)CC(O)C(=O)O)[nH]n1` (stereo partly drawn) [Example 15-94, (R)-5-Biphenyl-4-yl-2-hydroxy-4-{[5-(2-methoxy-acetylamino)-2H-pyrazole-3-carbonyl]-amino}-pentanoic acid], 12.6 to 100 nM.
Still for that read-out and setting: the figure for `COc1ccccc1C(=O)Nc1cc(C(=O)N[C@H](Cc2ccc(-c3ccccc3)cc2)CC(O)C(=O)O)[nH]n1` (stereo partly drawn) [Example 15-95, (R)-5-Biphenyl-4-yl-2-hydroxy-4-{[5-(2-methoxy-benzoylamino)-2H-pyrazole-3-carbonyl]-amino}-pentanoic acid] is 1.26 to 10 nM.
Regarding `O=C(N[C@H](Cc1ccc(-c2ccccc2)cc1)C[C@@H](O)C(=O)O)c1cc(NC(=O)c2ccccc2Cl)n[nH]1` [Example 15-96, (2R,4R)-5-Biphenyl-4-yl-4-{[5-(2-chlorobenzoylamino)-2H-pyrazole-3-carbonyl]-amino}-2-hydroxy-pentanoic acid], the pKi is at least 9.0.
Consider `O=C(Nc1cc(C(=O)N[C@H](Cc2ccc(-c3ccccc3)cc2)CC(O)C(=O)O)[nH]n1)c1ccccn1` (stereo partly drawn) [Example 15-100, (R)-5-Biphenyl-4-yl-2-hydroxy-4-({5-[(pyridine-2-carbonyl)-amino]-2H-pyrazole-3-carbonyl}-amino)-pentanoic acid], for which the Ki is 1.26 to 10 nM.
Same read-out and setting: the figure for `Nc1cc(C(=O)N[C@H](Cc2ccc(-c3ccccc3)cc2)CC(O)C(=O)O)n[nH]1` (stereo partly drawn) [Example 15-101, (R)-4-[(5-Amino-2H-pyrazole-3-carbonyl)-amino]-5-biphenyl-4-yl-2-hydroxy-pentanoic acid] is 12.6 to 100 nM.
On the same count and under the same terms, to `O=C(N[C@H](Cc1ccc(-c2ccccc2)cc1)C[C@@H](O)C(=O)O)c1cc(-c2ccccn2)n[nH]1` [Example 15-102, (2R,4R)-5-Biphenyl-4-yl-2-hydroxy-4-[(5-pyridin-2-yl-2H-pyrazole-3-carbonyl)-amino]-pentanoic acid] belongs at most 1 nM; to `O=C(N[C@H](Cc1ccc(-c2ccccc2)cc1)C[C@@H](O)C(=O)O)c1cc(-c2cnccn2)n[nH]1` [Example 15-106, (2R,4R)-5-Biphenyl-4-yl-2-hydroxy-4-[(5-pyrazin-2-yl-2H-pyrazole-3-carbonyl)-amino]pentanoic acid], 1.26 to 10 nM; to `CC(=O)c1cc(C(=O)N[C@H](Cc2ccc(-c3ccccc3)cc2)C[C@@H](O)C(N)=O)[nH]n1` [Example 15-108, 5-Acetyl-2H-pyrazole-3-carboxylic acid ((1R,3R)-1-biphenyl-4-ylmethyl-3-carbamoyl-3-hydroxypropyl)amide], 12.6 to 100 nM.
Same read-out and setting: the figure for `C[C@H](O)c1cc(C(=O)N[C@H](Cc2ccc(-c3ccccc3)cc2)C[C@@H](O)C(=O)O)[nH]n1` [Example 15-109, (2R,4R)-5-Biphenyl-4-yl-2-hydroxy-4-{[5-((S)-1-hydroxyethyl)-2H-pyrazole-3-carbonyl]amino}pentanoic acid] is 1.26 to 10 nM; for `C[C@@H](O)c1cc(C(=O)N[C@H](Cc2ccc(-c3ccccc3)cc2)C[C@@H](O)C(=O)O)[nH]n1` [Example 15-110, (2R,4R)-5-Biphenyl-4-yl-2-hydroxy-4-{[5-((R)-1-hydroxyethyl)-2H-pyrazole-3-carbonyl]amino}pentanoic acid] it is 1.26 to 10 nM.
With `C/C(=N\O)c1cc(C(=O)N[C@H](Cc2ccc(-c3ccccc3)cc2)C[C@@H](O)C(=O)O)[nH]n1` [Example 15-111, (2R,4R)-5-Biphenyl-4-yl-2-hydroxy-4-[(5-{1-[(E)-hydroxyimino]-ethyl}-2H-pyrazole-3-carbonyl)-amino]-pentanoic acid], the pKi is given as at least 9.0.
As to `CCCCc1cc(C(=O)N[C@H](Cc2ccc(-c3ccccc3)cc2)C[C@@H](O)C(=O)O)[nH]n1` [Example 15-112, (2R,4R)-5-Biphenyl-4-yl-4-[(5-butyl-2H-pyrazole-3-carbonyl)-amino]-2-hydroxy-pentanoic acid], the Ki is 1.26 to 10 nM.
Still for that read-out and setting: to `O=C(N[C@H](Cc1ccc(-c2ccccc2)cc1)CC(O)C(=O)O)c1cn[nH]c1` (stereo partly drawn) [Example 15-113, (R)-5-Biphenyl-4-yl-2-hydroxy-4-[(1H-pyrazole-4-carbonyl)amino]pentanoic acid] belongs 12.6 to 100 nM.
For `O=C(N[C@H](Cc1ccc(-c2ccccc2)cc1)C[C@@H](O)C(=O)O)c1cc2n(n1)CCOc1ccccc1-2` [Example 16-1, (2R,4R)-5-Biphenyl-4-yl-4-[(4,5-dihydro-6-oxa-3,3a-diaza-benzo[e]azulene-2-carbonyl)-amino]-2-hydroxy-pentanoic acid], the pKi is listed as at least 9.0.
Consider `O=C(N[C@H](Cc1ccc(-c2ccccc2)cc1)C[C@@H](O)C(=O)O)c1cc2nn1CCOc1ccccc1-2` [Example 16-2, (2R,4R)-5-Biphenyl-4-yl-2-hydroxy-4-[(8-oxa-11,14-diaza-tricyclo[9.2.1.02,7]tetradeca-1(14),2,4,6,12-pentaene-12-carbonyl)-amino]-pentanoic acid], for which the Ki was 12.6 to 100 nM.
On to `O=C(N[C@H](Cc1ccc(-c2ccccc2)cc1)C[C@@H](O)C(=O)O)c1cc2n(n1)CCCOc1ccccc1-2` [Example 16-3, (2R,4R)-5-Biphenyl-4-yl-2-hydroxy-4-[(10-oxa-5,6-diaza-tricyclo[9.4.0.02,6]pentadeca-1(15),2,4,11,13-pentaene-4-carbonyl)-amino]-pentanoic acid], for which the inhibitory constant (Ki) is 1.26 to 10 nM.
Still for that read-out and setting: to `O=C(N[C@H](Cc1ccc(-c2ccccc2)cc1)C[C@@H](O)C(=O)O)c1cc2n(n1)C[C@H](O)COc1ccccc1-2` [Example 16-4, (2R,4R)-5-Biphenyl-4-yl-2-hydroxy-4-[((S)-8-hydroxy-10-oxa-5,6-diaza-tricyclo[9.4.0.02,6]pentadeca-1(15),2,4,11,13-pentaene-4-carbonyl)-amino]-pentanoic acid] belongs 1.26 to 10 nM.
Same read-out and setting: to `O=C(N[C@H](Cc1ccc(-c2ccccc2)cc1)C[C@@H](O)C(=O)O)c1cc2n(n1)C[C@@H](O)COc1ccccc1-2` [Example 16-5, (2R,4R)-5-Biphenyl-4-yl-2-hydroxy-4-[((R)-8-hydroxy-10-oxa-5,6-diaza-tricyclo[9.4.0.02,6]pentadeca-1(15),2,4,11,13-pentaene-4-carbonyl)-amino]-pentanoic acid] belongs 12.6 to 100 nM; to `O=C(N[C@H](Cc1ccc(-c2ccccc2)cc1)C[C@@H](O)C(=O)O)c1cc2n(n1)COc1ccccc1-2` [Example 16-6, (2R,4R)-5-Biphenyl-4-yl-2-hydroxy-4-[(5-oxa-3,3a-diaza-cyclopenta[a]naphthalene-2-carbonyl)-amino]-pentanoic acid], 1.26 to 10 nM.
On the same count and under the same terms, the figure for `O=C(N[C@H](Cc1ccc(-c2cccc(Cl)c2)cc1)C[C@@H](O)C(=O)O)c1cn(O)nn1` [Example 17-A, (2R,4R)-5-(3′-Chlorobiphenyl-4-yl)-2-hydroxy-4-[(1-hydroxy-1H-[1,2,3]triazole-4-carbonyl)-amino]pentanoic Acid] is at most 1 nM.
Regarding `O=C(N[C@H](Cc1ccc(-c2cccc(Cl)c2)cc1)C[C@@H](O)C(=O)O)c1c[nH]nn1` [Example 18-2, (2R,4R)-5-(3′-Chlorobiphenyl-4-yl)-2-hydroxy-4-[(1H-[1,2,3]triazole-4-carbonyl)-amino]-pentanoic acid], the pKi is on record as at least 9.0.
Same read-out and setting: the figure for `O=C(N[C@H](Cc1ccc(-c2cccc(Cl)c2)cc1)C[C@@H](O)C(=O)O)c1ccc2nnn(O)c2c1` [Example 18-3, (2R,4R)-5-(3′-Chlorobiphenyl-4-yl)-2-hydroxy-4-[(3-hydroxy-3H-benzotriazole-5-carbonyl)-amino]-pentanoic acid] is at least 9.0.
